Results from patent US8609413B2, “Neurons, astrocytes and oligodendrocytes differentiated from a mammalian pluripotent or neural stem cells exposed to a pyridine deriviative” (Research Development Foundation, priority 2007, dated 2013).

How the values were obtained:
[1] = test system: mouse ES cells; conditions: literature reports; cited from earlier work
[2] = test system: human ES cells; assay: TWS119 tested by the inventors on human ES cells; assay type: cell-based
[3] = test system: human ESC-derived NPC / ESC aggregates; assay: Air/liquid interface three-dimensional culture with added factors; assay type: cell-based; conditions: exogenously added factor
Source text: Air/liquid interface expansion/differentiation of NPC may be performed via the following protocol. One or more rosettes-enriched clusters may be manually removed and multiple clusters (e.g., about 5-10 clusters) may be plated on a hydrophilic polytetrafluoroethylene (PTFE) membrane (e.g., 6 mm diameter, 0.4 μm, BioCell-Interface, La Chaux-de-Fonds, Switzerland). This membrane may be deposited on a Millicell®-CM (0.4 μm) Culture Plate Insert (Millipore) (FIG. 5A). N2 medium may preferably be added (e.g., about 1 ml) underneath the membrane insert.
Air/liquid interface expansion/differentiation of NPC. Rosettes-enriched cluster were manually removed and 5-10 clusters were plated on a hydrophilic polytetrafluoroethylene (PTFE) membrane (6 mm diameter, 0.4 μm, BioCell-Interface, La Chaux-de-Fonds, Switzerland). This membrane was deposited on a Millicell®-CM (0.4 μm) Culture Plate Insert (Millipore) (FIG. 1). One ml of N2 medium was added underneath the membrane insert.

Molecule	neuronal differentiation of mouse ES cells [1]	cell growth [2]	neuronal differentiation [2]	phenotype of engineered tissue [3]	size of engineered tissue [3]
Cc1cccc(C#Cc2ccccc2)n1 [MPEP, 2-methyl-6-(phenylethynyl)-pyridine]	enhances their differentiation towards neurons				
Nc1cccc(-c2cc3c(Oc4cccc(O)c4)ncnc3[nH]2)c1 [TWS119]	enhanced neuronal differentiation of mouse ES cells	decreased cell growth	only small effect on neuronal differentiation		
EGF: epidermal growth factor				did not induce phenotypic changes	moderate increase
FGF-2: basic fibroblast growth factor, exogenously added growth factor				did not induce phenotypic changes	moderate increase
